{"source": "patent US20100022491A1", "about": "“4-HYDROXY-2-OXO-2,3-DIHYDRO-1,3-BENZOTHIAZOL-7YL COMPOUNDS FOR MODULATION OF B2-ADRENORECEPTOR ACTIVITY” (ASTRAZENECA AB, priority 2006, published 2010)", "key": {"[1]": {"target": "T1, recombinant human Dopamine Subtype D2s receptors (Homo sapiens, UniProt P14416)", "T1 construct": "purchased Perkin Elmer", "T1 sequence (P14416 1-414 isoform P14416-2)": "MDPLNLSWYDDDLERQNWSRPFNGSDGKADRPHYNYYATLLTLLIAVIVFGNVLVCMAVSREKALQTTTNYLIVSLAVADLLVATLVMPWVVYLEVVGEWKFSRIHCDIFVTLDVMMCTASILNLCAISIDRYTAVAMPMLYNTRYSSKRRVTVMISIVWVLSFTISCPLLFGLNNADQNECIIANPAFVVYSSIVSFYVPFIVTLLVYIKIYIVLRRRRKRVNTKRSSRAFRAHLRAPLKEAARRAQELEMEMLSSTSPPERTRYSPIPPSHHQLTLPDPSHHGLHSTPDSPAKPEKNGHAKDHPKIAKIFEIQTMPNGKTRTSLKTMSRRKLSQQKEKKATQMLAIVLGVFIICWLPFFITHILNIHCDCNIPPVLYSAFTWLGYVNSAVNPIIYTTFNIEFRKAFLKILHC", "test": "Dopamine D2 selectivity binding assay ([3H]-spiperone)", "conditions": "inhibition of [3H]-spiperone (0.16 nM) binding; for IC50: read-out: D2 bind pIC50 (converted)", "in_short": "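Displacement of [3H]-spiperone (0.16 nM final) from human D2s receptor membranes in pH 7.4 HEPES buffer over 2 h at room temperature, then filtration and scintillation counting. Specific binding taken as vehicle minus 10 μM haloperidol wells. Potency given as pIC50 from a four-parameter logistic curve.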"}, "[2]": {"target": "T2, recombinant human α1D receptor (Homo sapiens, UniProt P25100)", "T2 construct": "expressed in transfected cells; host or cells: HEK293", "T2 sequence (P25100 1-572)": "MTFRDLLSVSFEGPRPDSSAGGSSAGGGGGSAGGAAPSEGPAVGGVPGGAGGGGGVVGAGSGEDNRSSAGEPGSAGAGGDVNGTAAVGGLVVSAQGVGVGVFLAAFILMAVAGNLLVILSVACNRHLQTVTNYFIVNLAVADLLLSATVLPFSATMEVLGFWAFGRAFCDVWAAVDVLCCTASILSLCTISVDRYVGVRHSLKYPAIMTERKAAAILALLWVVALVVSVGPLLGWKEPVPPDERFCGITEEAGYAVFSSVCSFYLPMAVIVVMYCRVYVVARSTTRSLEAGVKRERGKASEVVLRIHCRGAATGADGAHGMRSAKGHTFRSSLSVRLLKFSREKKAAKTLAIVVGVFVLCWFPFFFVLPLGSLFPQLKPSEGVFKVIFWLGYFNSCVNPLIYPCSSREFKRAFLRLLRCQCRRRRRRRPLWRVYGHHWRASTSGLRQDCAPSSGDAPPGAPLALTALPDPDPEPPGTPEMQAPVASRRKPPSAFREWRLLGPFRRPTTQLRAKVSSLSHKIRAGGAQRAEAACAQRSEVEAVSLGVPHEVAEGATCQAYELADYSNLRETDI", "test": "Adrenergic α1D selectivity binding assay ([3H]-prazosin)", "conditions": "inhibition of [3H]-prazosin (0.3 nM) binding, HEK293 membranes; for IC50: read-out: α1 bind pIC50 (converted)", "in_short": "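Displacement of [3H]-prazosin (0.3 nM) from recombinant human α1D receptor in HEK293-cell membranes, 2 h at room temperature, pH 7.4 HEPES/EDTA/gelatin buffer. Filtration and scintillation counting, non-specific binding set with 10 μM BMY7378; four-parameter logistic fit gives pIC50.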"}}, "note": "Where a name gives a salt, the structure may show the parent alone."}
{"smiles": "CCCC(CCC)N(CCNCCc1ccc(O)c2[nH]c(=O)sc12)C(=O)CCNCCc1ccc(F)cc1", "note": "[Example 64, N^3-[2-(4-Fluorophenyl)ethyl]-N^1-(2-{[2-(4-hydroxy-2-oxo-2,3-dihydro-1,3-benzothiazol-7-yl)ethyl]amino}ethyl)-N^1-(1-propylbutyl)-β-alaninamide bis-trifluoroacetic acid salt]", "values": [{"measurement": "IC50", "setting": "[1]", "result": 0.2, "unit": "µM"}, {"measurement": "IC50", "setting": "[2]", "result": 0.0794, "unit": "µM"}]}
{"smiles": "O=C(CCNCCc1cc(F)ccc1F)N(CCNCCc1ccc(O)c2[nH]c(=O)sc12)C1CCCCC1", "note": "[Example 79, N^1-Cyclohexyl-N^3-[2-(2,5-difluorophenyl)ethyl]-N^1-(2-{[2-(4-hydroxy-2-oxo-2,3-dihydro-1,3-benzothiazol-7-yl)ethyl]amino}ethyl)-β-alaninamide bis-trifluoroacetic acid salt]", "values": [{"measurement": "IC50", "setting": "[1]", "result": 0.158, "unit": "µM"}, {"measurement": "IC50", "setting": "[2]", "result": 0.0631, "unit": "µM"}]}
{"smiles": "O=C(CCNCCc1cccc(F)c1F)N(CCNCCc1ccc(O)c2[nH]c(=O)sc12)C1CCCCC1", "note": "[Example 93, N-Cyclohexyl-N^3-[2-(2,3-difluorophenyl)ethyl]-N-(2-{[2-(4-hydroxy-2-oxo-2,3-dihydro-1,3-benzothiazol-7-yl)ethyl]amino}ethyl)-β-alaninamide dihydrobromide salt]", "values": [{"measurement": "D2 bind pIC50", "setting": "[1]", "result": 6.5}, {"measurement": "α1 bind pIC50", "setting": "[2]", "result": 6.7}]}
{"smiles": "O=C(CCNCCc1ccc(F)cc1)N(CCNCCc1ccc(O)c2[nH]c(=O)sc12)C1CCCCC1", "note": "[Example 16, N-Cyclohexyl-N^3-[2-(4-fluorophenyl)ethyl]-N-(2-{[2-(4-hydroxy-2-oxo-2,3-dihydro-1,3-benzothiazol-7-yl)ethyl]amino}ethyl)-β-alaninamide bis-trifluoroacetic acid salt]", "values": [{"measurement": "IC50", "setting": "[1]", "result": 0.631, "unit": "µM"}, {"measurement": "IC50", "setting": "[2]", "result": 0.1, "unit": "µM"}]}
{"smiles": "O=C(CCNCCc1cccs1)N(CCNCCc1ccc(O)c2[nH]c(=O)sc12)C1CCCCC1", "note": "[Example 35, N-Cyclohexyl-N-(2-{[2-(4-hydroxy-2-oxo-2,3-dihydro-1,3-benzothiazol-7-yl)ethyl]amino}ethyl)-N^3-[2-(2-thienyl)ethyl]-β-alaninamide bis-trifluoroacetic acid salt]", "values": [{"measurement": "IC50", "setting": "[1]", "result": 0.316, "unit": "µM"}, {"measurement": "IC50", "setting": "[2]", "result": 0.158, "unit": "µM"}]}
{"smiles": "O=C(CCNCCc1ccccc1)N(CCNCCc1ccc(O)c2[nH]c(=O)sc12)C1CCCCCC1", "note": "[Example 98, N-Cycloheptyl-N-(2-{[2-(4-hydroxy-2-oxo-2,3-dihydro-1,3-benzothiazol-7-yl)ethyl]amino}ethyl)-N^3-(2-phenylethyl)-β-alaninamide dihydrobromide salt]", "values": [{"measurement": "IC50", "setting": "[1]", "result": 0.158, "unit": "µM"}, {"measurement": "IC50", "setting": "[2]", "result": 0.0631, "unit": "µM"}]}
{"smiles": "O=C(CCNCCc1ccc(Cl)cc1)N(CCNCCc1ccc(O)c2[nH]c(=O)sc12)C1CCCCCC1", "note": "[Example 51, N^3-[2-(4-Chlorophenyl)ethyl]-N^1-cycloheptyl-N^1-(2-{[2-(4-hydroxy-2-oxo-2,3-dihydro-1,3-benzothiazol-7-yl)ethyl]amino}ethyl)-β-alaninamide bis-trifluoroacetic acid salt]", "values": [{"measurement": "IC50", "setting": "[1]", "result": 0.0251, "unit": "µM"}, {"measurement": "IC50", "setting": "[2]", "result": 0.316, "unit": "µM"}]}
{"smiles": "NS(=O)(=O)c1ccc(CCNCCC(=O)N(CCNCCc2ccc(O)c3[nH]c(=O)sc23)C2CCCCC2)cc1", "note": "[Example 69, N^3-{2-[4-(Aminosulfonyl)phenyl]ethyl}-N^1-cyclohexyl-N^1-(2-{[2-(4-hydroxy-2-oxo-2,3-dihydro-1,3-benzothiazol-7-yl)ethyl]amino}ethyl)-β-alaninamide bis-trifluoroacetic acid salt]", "values": [{"measurement": "IC50", "setting": "[1]", "result": 0.1, "unit": "µM"}, {"measurement": "IC50", "setting": "[2]", "result": 0.158, "unit": "µM"}]}
{"smiles": "Cc1cccc(CCNCCC(=O)N(CCNCCc2ccc(O)c3[nH]c(=O)sc23)C2CCOCC2)c1", "note": "[Example 25, N-(2-{[2-(4-Hydroxy-2-oxo-2,3-dihydro-1,3-benzothiazol-7-yl)ethyl]amino}ethyl)-N^3-[2-(3-methylphenyl)ethyl]-N-(tetrahydro-2H-pyran-4-yl)-β-alaninamide bis-trifluoroacetic acid salt]", "values": [{"measurement": "IC50", "setting": "[1]", "result": 2.51, "unit": "µM"}, {"measurement": "IC50", "setting": "[2]", "result": 0.251, "unit": "µM"}]}
{"smiles": "O=C(CCNCCc1cc(F)cc(F)c1)N(CCNCCc1ccc(O)c2[nH]c(=O)sc12)C1CCCCCC1", "note": "[Example 58, N^1-Cycloheptyl-N^3-[2-(3,5-difluorophenyl)ethyl]-N^1-(2-{[2-(4-hydroxy-2-oxo-2,3-dihydro-1,3-benzothiazol-7-yl)ethyl]amino}ethyl)-β-alaninamide bis-trifluoroacetic acid salt]", "values": [{"measurement": "IC50", "setting": "[1]", "result": 0.158, "unit": "µM"}, {"measurement": "IC50", "setting": "[2]", "result": 0.251, "unit": "µM"}]}
{"smiles": "O=C(CCNCCc1ccc(Cl)s1)N(CCNCCc1ccc(O)c2[nH]c(=O)sc12)C1CCCCC1", "note": "[Example 72, N^3-[2-(5-Chloro-2-thienyl)ethyl]-N^1-cyclohexyl-N^1-(2-{[2-(4-hydroxy-2-oxo-2,3-dihydro-1,3-benzothiazol-7-yl)ethyl]amino}ethyl)-β-alaninamide bis-trifluoroacetic acid salt]", "values": [{"measurement": "IC50", "setting": "[1]", "result": 0.126, "unit": "µM"}, {"measurement": "IC50", "setting": "[2]", "result": 0.398, "unit": "µM"}]}
